The source of these data is US5403932A, “Phosphoramidates useful as antitumor agents” (Research Corporation Technologies, Inc., priority 1994, dated 1995).

Where two headings read alike, the source gives them in different places.

In assay [1] the test system is HT29 human colon cancer cells. The assay is described as follows: Aerobic and hypoxic selectivity against human colon cancer HT29 cells, colony formation. Type of assay: cell-based. As to conditions: 4 h. The protocol:
HT29 human colon cancer cells were maintained in exponential growth in α-MEM medium supplemented with 10% fetal bovine serum and 25 mM HEPES buffer, and cultured at 37° C. and 3% CO2. For drug treatments, 1-2×10^6 cells in 10 ml of medium were transferred to glass reaction vials. For the hypoxic experiments, the medium was first gassed for 3 hr with 95% nitrogen/5% CO2 to achieve a partial pressure of oxygen <100 ppm. These cell suspensions were then treated with drug at different concentrations under either aerobic or hypoxic conditions for 4 hr in the reaction vials. The medium was removed, the cells were washed, and a colony formation assay was carried out as described above in Example 15. Colonies with […] 50 cells were counted 12-14 days after plating. The log of the surviving fraction was plotted against drug concentration, and from this plot the concentration required to reduce the colony number to 10% of control (LC90) was determined. The results of this test on representative compounds of the present invention are depicted in Table 4.

The subject of assay [2] is P388/O (cyclophosphamide sensitive) murine leukemia cells. The assay is described as follows: Soft agar colony-forming assay, in vitro cytotoxicity against cyclophosphamide-sensitive P388 murine leukemia. The settings on record: 1 h at 37°, 99% cell kill. Type of assay: cell-based, mouse. The protocol: (§1) The In Vitro cytotoxic activity of representative compounds under hypoxic and aerobic conditions were evaluated as follows.
(§2) A soft agar colony-forming assay according to the procedure of Chu and Fischer, Biochem. Pharmacol., 17, 753-767 (1968) was used and modified where necessary. Cultured mouse L1210 and P388 sensitive cells were purchased from EG&G Mason Research Institute, Tumor Bank, Worchester, Ma. Cultured cyclophosphamide resistant L1210 and P388 cells were obtained from Dr. Robert Struck of Southern Research Institute, Birmingham, Ala. Typically, the desired cells (2-3×10^6 cells/ml) in exponential growth and suspended in 6.5 ml of Fischer's medium (Gibco Lab., Grand Island, N.Y.) were divided into six groups (1 control and 5 treated groups) containing an equal number of cells in 1 ml. These cells were then treated with varying doses of drug diluted with media to give a total volume of 10 ml, and incubated for one hour at 37° C. The cells were washed three times with 3 ml of supplemented Fischer's medium (containing 10% horse serum) by centrifuge (800×g), removal of media by suction, and resuspension of the pellet in media (5 ml). A 1-ml portion was used to determine the cell count with a Coulter counter. From the remainder, a 5-ml suspension of cells was prepared at a density of 10^5 cells/ml, and between 10^2 and 10^5 cells were placed on soft agar and incubated at 37° C. Colonies were counted after 10 days. The log of the surviving fraction was plotted vs. drug concentration and from this plot the LC99 was obtained. (By definition, the LC99 value represents the concentration of drug necessary to effect a 99% cell kill.)

The test system of assay [3] is L1210/O (cyclophosphamide sensitive) murine leukemia cells. The experiment in a line: Soft agar colony-forming assay, in vitro cytotoxicity against cyclophosphamide-sensitive L1210 murine leukemia. Type of assay: cell-based, mouse. As to conditions: 1 h at 37°, 99% cell kill. The protocol: as §1, §2
For assay [4], the system named is P388/CP (cyclophosphamide resistant) murine leukemia cells. The experiment in a line: Soft agar colony-forming assay, in vitro cytotoxicity against cyclophosphamide-resistant P388 murine leukemia. Type of assay: cell-based, mouse. As to conditions: 1 h at 37°, 99% cell kill. The procedure: as §1
as §2, with “From the remainder, a 5-ml suspension of cells was prepared at a density of 10^5 cells/ml, and between 10^2 and 10^5 cells were placed on soft agar and incubated at 37° C.” left out, “The log of the surviving fraction was plotted vs. drug concentration and from this plot the LC99 was obtained. (By definition, the LC99 value represents the concentration of drug necessary to effect a 99% cell kill.)” left out

Assay [5] concerns L1210/CP (cyclophosphamide resistant) murine leukemia cells. The experiment in a line: Soft agar colony-forming assay, in vitro cytotoxicity against cyclophosphamide-resistant L1210 murine leukemia. Type of assay: cell-based, mouse. As to conditions: 1 h at 37°, 99% cell kill. The protocol: as §1
as §2, with “From the remainder, a 5-ml suspension of cells was prepared at a density of 10^5 cells/ml, and between 10^2 and 10^5 cells were placed on soft agar and incubated at 37° C.” left out, “The log of the surviving fraction was plotted vs. drug concentration and from this plot the LC99 was obtained. (By definition, the LC99 value represents the concentration of drug necessary to effect a 99% cell kill.)” left out

Another assay deals with B16 melanoma cells. The experiment in a line: Cytotoxicity against B16 melanoma cells, colony formation. Type of assay: cell-based. As to conditions: B16 mouse melanoma, 2 h treatment; read-out: Drug Concentration required to kill 90% of Clonogenic Tumor Cells In Vitro (LC90), B/16. The protocol:
B16 melanoma cells in exponential growth (2-3×10^6 cells in 10 ml of serum-free MEM medium) were treated with drug for 2 hr. The cells were separated, washed, and resuspended in MEM medium supplemented with 10% fetal bovine serum. The cells were plated in 60-mm culture dishes at a density of 50-50,000 cells/plate (depending upon the drug concentration used) and then incubated for 8 days in a CO2 incubator at 37°. The colonies were fixed and stained with 0.5% crystal violet in ethanol and counted. The log of the surviving fraction was plotted against drug concentration, and from this plot the concentration required to reduce the colony number to 10% of control (LC90) was determined.

Assay [6] relates to KHT/iv cells (mouse KHT sarcoma). The assay is described as follows: Hypoxic cell selectivity using KHT/iv cells, clonogenic assay. As to conditions: 4 h at 37°; for LC99, Aerobic: aerobic (95:5 air:CO2); for LC99, Hypoxic: hypoxic (95:5 nitrogen:CO2). The class given is cell-based. The procedure: KHT/iv cells were adapted to cell culture from tile mouse KHT sarcoma by Dietmar Siemann, University of Rochester. Cells were maintained in Eagle's basal medium and 10% fetal calf serum for all experiments. Cells in exponential growth were trypsinized from monolayer cultures and separated from one another by agitation in a gas-tight syringe at a density of 1-2×10^7 cells/ml for 15 minutes at 37°. The cells were then resuspended in HEPES-buffered Eagle's medium contained in stirred gas-tight vials at a final density of 2×10^7 cells/ml; before cells or drugs were added, the vials were pre-equilibrated with humidified gas having tile composition 95:5 air:CO2 for aerobic treatment or 95:5 nitrogen:CO2 from hypoxic treatment. Oxygen tension in the hypoxic medium was approximately 100 ppm after tile equilibration period. Drug was dissolved a volume of ethanol that would give a final ethanol concentration of 1% in the medium; this concentration of ethanol had no effect on the plating efficiency of control cell preparations. Cells were incubated with drug under aerobic or hypoxic conditions at 37° for 4 hours. The cells were then removed from the vials, washed with drug-free medium, counted, and plated for cell survival using a standard clonogenic assay. Cell surviving fraction was plotted vs. drug concentration, and the LC99 values were obtained from the least squares equation.

[7] abbreviates: Table 4, aerobic, read-out: Drug Concentration required to kill 90% of Clonogenic Tumor Cells In Vitro (LC90), HT29 Aerobic.
Setting [8] is: Table 4, hypoxic (95% nitrogen/5% CO2), read-out: Drug Concentration required to kill 90% of Clonogenic Tumor Cells In Vitro (LC90), HT29 Hypoxic.
[9] abbreviates: Table 3, aerobic, read-out: Drug Concentration required to kill 90% of Clonogenic Tumor Cells In Vitro (LC90), HT29 Aerobic.
Where [10] appears, read: Table 3, hypoxic (95% nitrogen/5% CO2), read-out: Drug Concentration required to kill 90% of Clonogenic Tumor Cells In Vitro (LC90), HT29 Hypoxic.

Turning to `CC(OP(=O)(N(CCCl)CCCl)N(CCCl)CCCl)c1ccc([N+](=O)[O-])cc1` (centres unmarked), the results for the IC90 in assay [1] (setting [7]) and in assay [1] (setting [8]) were more than 500 µM and 45 µM, respectively.

In the case of `COC(=O)CC(OP(N)(=O)N(CCCl)CCCl)c1ccc([N+](=O)[O-])cc1` (centres unmarked) [4-NO2 Ph, methyl 3-(4-nitrophenyl)-3-(N,N-bis-(2-chloroethyl)phosphorodiamido) propionate], the LC99 in assay [2] was 82; in assay [3], 138; in assay [4] it was 77; in assay [5], 152.

`CCOC(=O)CC(OP(=O)(N(CCCl)CCCl)N(CCCl)CCCl)c1ccc([N+](=O)[O-])c(C)n1` (centres unmarked) [Compound 16, O-(1(6-methyl-5-nitro-2-pyridyl)-2-carbethoxyethyl)-N,N,N'N'-tetrakis(2-chloroethyl)phosphoramide]: the IC90 was 150 µM in the assay on B16 melanoma cells, 110 µM in assay [1] (setting [9]) and 25 µM in assay [1] (setting [10]).

As to `CN(C)CCOC(=O)CC(OP(=O)(N(CCCl)CCCl)N(CCCl)CCCl)c1ccc([N+](=O)[O-])s1` (centres unmarked) [Compound 14, O-(1-(5-nitro-2-thiophene)-2-(2-N,N-dimethylaminoethoxycarbonyl)ethyl)-N,N,N'N'-tetrakis-(2-chloroethyl)-phosphoramide], the IC90 in the assay on B16 melanoma cells worked out at 2.8 µM; in assay [1] (setting [9]), 7.5 µM; in assay [1] (setting [10]), 3 µM.

`CCOC(=O)CC(OP(=O)(N(CCCl)CCCl)N(CCCl)CCCl)c1cc([N+](=O)[O-])ccn1` (centres unmarked) [Compound 17, O-(1-(4-nitro-2-pyridyl)-2-carbethoxyethyl)-N,N,N',N'-tetrakis(2-Chloroethyl)phosphoramide]: the IC90 in the assay with B16 melanoma cells came to 50 µM; in assay [1] (setting [9]) it was 80 µM; in assay [1] (setting [10]) it was 35 µM.

`CCOC(=O)CC(OP(N)(=O)N(CCCl)CCCl)c1cc(CN(C)C)cc2cc([N+](=O)[O-])cnc12` (centres unmarked): the IC90 was 700 µM in assay [1] (setting [7]) and 95 µM in assay [1] (setting [8]).

`COC(=O)CC(OP(N)(=O)N(CCCl)CCCl)c1ccccc1` (centres unmarked) [Ph, reference compound]: the LC99 in assay [2] was 300; in assay [3], 350.

Take `CCOC(=O)CC(OP(=O)(N(CCCl)CCCl)N(CCCl)CCCl)c1ccc([N+](=O)[O-])s1` (centres unmarked) [Compound 15, O-(1-(5-nitro-2-thiophene)-2-carbethoxyethyl)-N,N,N'N'-tetrakis(2-chloroethyl)phosphoramide]: in the assay on B16 melanoma cells, the IC90 turned out to be 3 µM.

As for `CN(C)CCOC(=O)CC(OP(=O)(N(CCCl)CCCl)N(CCCl)CCCl)c1ccc([N+](=O)[O-])cc1` (centres unmarked) [Compound 13, O-(1-(4-nitrophenyl)-2-(2-N,N-dimethylaminoethoxycarbonyl)ethyl)-N,N,N'N'-tetrakis-(2-chloroethyl)phosphoramide], the results for the IC90 (in the assay on B16 melanoma cells; in assay [1] (setting [9]); in assay [1] (setting [10])) were less than 2 µM, 60 µM and 35 µM, respectively.

On to `NP(=O)(OCc1ccc([N+](=O)[O-])cc1)N(CCCl)CCCl` (centres unmarked) [Compound 4-nitro], for which, in assay [6], the “LC99, Aerobic” value was found to be 320 and the “LC99, Hypoxic” value is reported as 120.

As for `NP(=O)(OCc1ccccc1[N+](=O)[O-])N(CCCl)CCCl` (centres unmarked) [Compound 2-nitro], in assay [6], the “LC99, Aerobic” value came to 700 and the “LC99, Hypoxic” value was 230.

Consider `COC(=O)CC(OP(N)(=O)N(CCCl)CCCl)c1ccccc1[N+](=O)[O-]` (centres unmarked) [2-NO2 Ph, methyl 3-(2-nitrophenyl)-3-(N,N-bis(2-chloroethyl)phosphorodiamido)propionate], for which the LC99 in assay [2] was 134; in assay [3], 172.

`CCOC(=O)CC(OP(=O)(N(CCCl)CCCl)N(CCCl)CCCl)c1ccc([N+](=O)[O-])cc1` (centres unmarked) [Compound 12, O-(1-(4-nitrophenyl)-2-carbethoxyethyl)-N,N,N',N'-tetrakis(2-chloroethyl)phosphoramide]: the IC90 in the assay with B16 melanoma cells was more than 100 µM; in assay [1] (setting [9]) it was 80 µM; in assay [1] (setting [10]) it was 12 µM.
